Results: patent US6835722B1, “Pharmaceutical compositions and preparations for treatment of metabolic bone disease” (Yuyu Industrial Co., Ltd., priority 1999, dated 2004)

Tests used:
[1] = test system: female Sprague-Dawley white rats; experiment: Bone remodeling index: serum osteocalcin and alkaline phosphatase; type: in vivo; settings: single treatment (calcitriol 0.1 μg/kg or alendronate 1.0 mg/kg), 2 months; for concentration of serum osteocalcin: FIG. 5; for activity of alkaline phosphatase: FIG. 6
Procedure: (§1) Twelve week old matured female Sprague-Dawley white rats were supplied from Daehan Biolink Co., Ltd. (Seoul, Korea) and raised in a dean room of an animal experiment laboratory in a medical school of Seoul National University. The white rats were given a week to adapt by feeding them with normal feedstuff (Purina, chow diet) and then they were divided into 6 different groups wherein each group consisted of 10 white rats with similar weight distribution, and ovariostereses were performed to all of them. The white rats were allowed to freely drink water and have food under a standardized condition of 22° C., 50% humidity, 12 h dark/light cycle.
(§2) The amount of medication administered in each group is shown in the following table 1 and the control group was administered only with equal amount of palm oil and physiological saline used in the experimental groups.
(§3) After 2 months of the onset of the above medications, 24 h urine samples were collected from the white rats by using a metabolic cage, centrifuged and then stored at −70° C. The white rats under experiment were fasted overnight decapitated, and their blood samples were collected. White rats sera were then obtained by centrifuging those blood samples and were stored at −70° C. Tibiae were separated by ablation and fixed with 4% formalin at pH 7.4.
The activity level of serum alkaline phosphatase was measured by using Technicon autoanalyzer and the concentration of osteocalcin was measured by using a kit (OSCA test, Brahams, Berlin, Germany) which uses RIA method.

[2] = test system: female Sprague-Dawley white rats; experiment: Bone histomorphometry: area of trabecular bone of tibia after ovariosteresis; type: in vivo; settings: single treatment (calcitriol 0.1 μg/kg or alendronate 1.0 mg/kg), oral 5 days/week for 2 months after ovariosteresis; image analyzer, FIG. 2
Procedure: as §1, §2, §3

post-menopausal women = settings: clinical study; cited from earlier work
[3] = test system: female Sprague-Dawley white rats; experiment: Measurement of calcium excretion in urine (calcium/creatine of 24 h urine); type: in vivo; settings: single treatment (calcitriol 0.1 μg/kg or alendronate 1.0 mg/kg), 2 months, FIG. 4
Procedure: as §1, §2, §3

[4] = test system: female Sprague-Dawley white rats; experiment: Measurement of serum calcium concentration (Technicon autoanalyzer); settings: single treatment (calcitriol 0.1 μg/kg or alendronate 1.0 mg/kg), 2 months, FIG. 3
Procedure: as §1, §2, §3

Structure (SMILES)	concentration of serum osteocalcin [1]	activity of alkaline phosphatase [1]	area of trabecular bone [2]	reduction of rate of occurrence of new spinal fracture compared to placebo group (post-menopausal women)	calcium excretion in urine (calcium/creatine, 24 h urine) [3]	serum calcium concentration [4]
NCCCC(O)(P(=O)(O)O)P(=O)(O)O [alendronate, 4-amino-hydroxybutylidine-1,1-bisphosphonate]	decreased	decreased	drastically increased	about 48%	–	–
C=C1/C(=C\C=C2/CCC[C@]3(C)[C@@H]([C@H](C)CCCC(C)(C)O)CC[C@@H]23)C[C@@H](O)C[C@@H]1O [calcitriol]	slight increase	slight increase	not increased	–	increased markedly	significant increase
